Data published in patent US20220339179A1, “TREATMENT OF HR DEFICIENT CANCER” (THE FRANCIS CRICK INSTITUTE LIMITED, priority 2019, published 2022).

Columns and labels:
[1] = system: eHAP MUS81−/−DNPH1−/− cells; assay: Cell viability assay (CellTiter-Glo), eHAP MUS81−/−DNPH1−/− cells; type: cell-based, human; conditions: for sensitivity of MUS81/DNPH1 k/o cells to nucleoside treatment (cell viability): nucleoside 200 nM, vs MUS81 k/o; for sensitisation to PARP inhibitor by loss of DNPH1: vs MUS81 k/o cells, continuous treatment 6 days
Protocol: (§1) For analysis of cell viability following exposure to olaparib (Selleckchem), deoxyribonucleosides and DNPH1i (N6-benzyladenosine, Carbosynth), cells were seeded in 96-well plates at a density of 100-500 cells per well. Twenty-four hours post-seeding, drug treatments were initiated, and cells were continuously exposed until termination of the experiment. Cell viability was measured using CellTiter-Glo (Promega). The surviving fractions were measured, and drug sensitivity curves were plotted using GraphPad Prism. The following nucleosides were purchased from commercial sources: dU (2′-deoxyuridine), hdU (5-hydroxy-2′-deoxyuridine), hmdU (5-hydroxymethyl-2′-deoxyuridine), mdC (5-methyl-2′-deoxycytidine), hmdC (5-hydroxymethyl-2′-deoxycytidine), cadC (5-carboxy-2-deoxycytidine), fodC (5-formyl-2-deoxycytidine), dl (2′-deoxyinosine), dX (2′-deoxyxanthosine), 8odG (8-oxo-2′-deoxyguanosine), hmU (5 hydroxymethyluridine), hmC (5-hydroxymethyl-cytidine). fodU (5-formyl-2′-deoxyuridine) was synthesized as previously described (Guo et al Org. Biomol. Chem. 11, 1610-1613 (2013).

eHAP MUS81−/− cells = assay: Cell viability assay (CellTiter-Glo), eHAP MUS81−/− cells; type: cell-based, human; conditions: for effect on viability, agent alone: single agent
Protocol: as §1

recombinant human DNPH1 = target: T1, recombinant human DNPH1 (Homo sapiens, UniProt O43598); assay: DNPH1 in vitro activity assay (RP-HPLC); type: biochemical; conditions: for DNPH1 activity towards nucleoside monophosphate substrates: DNPH1 4 μM, substrate 1 mM, 45 min, RP-HPLC
T1 construct: His6 (N); made in house; host or cells: E. coli BL21 (pET28a)
T1 sequence (O43598 1-174): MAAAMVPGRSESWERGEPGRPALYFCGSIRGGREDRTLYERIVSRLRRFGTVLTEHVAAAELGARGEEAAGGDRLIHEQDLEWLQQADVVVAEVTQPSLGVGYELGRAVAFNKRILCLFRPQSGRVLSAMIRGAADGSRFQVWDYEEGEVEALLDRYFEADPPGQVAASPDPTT
Protocol: HIS6DNPH1 and HIS6DNPH1E105Q, cloned in pET28a were transformed into BL21 cells. Transformed cells were inoculated into 2 L of TB media supplemented with 50 μg/ml kanamycin and incubated 37° C. until an OD600=1.0. IPTG (0.5 mM) was added and incubation continued for 4 hours. Cells were harvested by centrifugation and resuspended in lysis buffer (50 mM HEPES pH 7.5, 300 mM NaCl, 5% glycerol, 0.5 mM TCEP) supplemented with protease inhibitors (Complete EDTA-free tablets, Roche). Cells were lysed by passage through an Emulsiflex C5 (Avestin) at […], and the chromatin sheared by sonication at 50% maximum amplitude for 2×30 sec. Soluble proteins were isolated by ultracentrifugation (Beckman Type JLA25.50 rotor) at 60,000×g for 60 min (4° C.). Soluble extract was supplemented with 30 mM imidazole and incubated with 2 ml Ni-NTA beads (GE Healthcare) for 1 hour (4° C.). The beads were washed (50 mM HEPES pH 7.5, 300 mM NaCl, 30 mM imidazole, 5% glycerol, 0.5 mM TCEP) and protein eluted (50 mM HEPES pH7.5, 300 mM NaCl, 200 mM imidazole, 5% glycerol, 0.5 mM TCEP). The eluates were pooled, diluted dropwise to 100 mM NaCl (50 mM HEPES pH 7.5, 5% glycerol, 0.5 mM DTT) and DNPH1 further purified using a 5 ml HiTRAP QHP column (GE Healthcare), followed by a Superdex 200 Increase 10/300 column (GE Healthcare). Peak fractions were separated by SDS-PAGE and visualized with Instant Blue (Gentaur). Peak fractions were frozen in aliquots and stored at −80° C.
DNPH1 (4 μM) was incubated with nucleoside monophosphates (1 mM) in 20 mM sodium phosphate, pH 7.0, 150 mM NaCl, 2 mM MgCl2. After 45 min at room temperature the reaction was quenched by addition of 0.7% perchloric acid followed by immediate neutralization with addition of sodium acetate to 200 mM. Samples were diluted 1:10 into RP-Buffer (100 mM K2HPO4/KH2PO4, pH 6.5, 10 mM tetrabutylammonium bromide, 7% acetonitrile) and the nucleotides and reaction products separated from precipitated protein by filtration through a 0.22 μm centrifugal filter (Durapore-PVDF, Millipore). Samples of each reaction (5 nmol) were applied to a Zorbax SB-C18 column (4.6×250 mm, 3.5 μm, 80A pore size, Agilent Technologies), maintained at 30° C. and mounted on a Jasco HPLC system controlled by Chromnav software (v1.19, Jasco). Nucleoside monophosphates and reaction products were separated under isocratic flow by application of RP-Buffer at 1 mL/min. Absorbance data from the column eluent was continuously monitored between 200-400 nm (2 nm interval) using an MD-2010 photodiode array detector (JASCO). […] Peak integration of the absorbance data recorded at 260 nm was used to quantify the amount of substrate and product. […] The rate was determined by linear regression of a plot of product against reaction time.

[2] = system: eHAP WT and MUS81−/− isogenic cells; assay: LD80 dose used in genome-wide CRISPR-Cas9 screen; type: cell-based, human; conditions: 10 days
Protocol: eHAP WT and MUS81−/− isogenic cells were transduced with a genome-wide lentiviral lentiCRISPRv2 sgRNA library (Doench et al 2016, PMID: 26780180) using multiplicity of infection (MOI) of ˜0.5 with a complexity of 400 cells/sgRNA. Transduced cells were selected with puromycin (0.4 mg/ml), expanded for 7 days, and sub-cultured in the presence or absence of an LD80 dose of olaparib (200 nM) or hmdC (1000 nM) for 10 days. Surviving cells were collected and genomic DNA was extracted using DNeasy Blood & Tissue Kit (Qiagen) supplemented with RNAse (Qiagen) according to the manufacturer's instructions. The CRISPR screens were carried out in biological triplicates. Libraries for Illumina sequencing were generated by two-step PCR amplification. In the first PCR, the sgRNA library was amplified and adaptors were added using nesting primers and the second PCR added barcodes, stagger regions, flow cell attachment and Illumina sequencing primers.
MUS81 k/o cells were transduced with the lentiviral-based Brunello genome-wide gRNA library (J. G. Doench et al Nat. Biotechnol. 34, 184-191 (2016)), followed by treatment with olaparib for 10 days. […] Bioinformatic analysis of the gRNA reads using the MAGeCK algorithm identified several novel, as well as previously reported, factors determining PARPi efficacy (FIG. 1).

DCTD k/o cell lines = assay: Cell viability, DCTD k/o cell lines; type: cell-based
Protocol: as §1

DLD1 BRCA2−/− cells = assay: Cell viability assay, DLD1 BRCA2−/− cells; type: cell-based; conditions: olaparib 10 nM or hmdU 2 μM, 10 days
Protocol: as §1

[3] = system: SUM149 BRCA1mut (parental) cells; assay: Cell viability assay, SUM149 BRCA1mut (parental) cells; type: cell-based, human; conditions: olaparib 250 nM or hmdU 2 μM, 8 days
Protocol: as §1

| Compound | effect on viability, agent alone (eHAP MUS81−/− cells) | DNPH1 activity towards nucleoside monophosphate substrates (recombinant human DNPH1) | sensitisation to PARP inhibitor by loss of DNPH1 [1] | further results |
| --- | --- | --- | --- | --- |
| OC[C@H]1O[C@@H](n2cnc3c(NCc4ccccc4)ncnc32)[C@H](O)[C@@H]1O [DNPH1i, N6-benzyladenosine] | no effect on viability |  |  | effect of DNPH1i on viability (specificity control) ([1]; with hmdU, 6 days, DNPH1 k/o cells): only a marginal effect; effect of DNPH1i on viability (specificity control) (eHAP MUS81−/− cells; with hmdU, 6 days, cells with DNPH1 (text: wild-type)): dose-dependent decrease in viability |
| O=c1ccn([C@@H]2O[C@H](COP(=O)(O)O)[C@@H](O)[C@H]2O)c(=O)[nH]1 [UMP] |  | Little or no activity |  |  |
| O=c1ccn([C@H]2C[C@H](O)[C@@H](COP(=O)(O)O)O2)c(=O)[nH]1 [dUMP] |  | Little or no activity |  |  |
| O=Cc1cn([C@H]2C[C@H](O)[C@@H](CO)O2)c(=O)[nH]c1=O [fodU, 5-formyl-2′-deoxyuridine] |  |  |  | sensitivity of MUS81/DNPH1 k/o cells to nucleoside treatment (cell viability) ([1]; 6 days): to a lesser extent |
| Nc1nc(=O)n([C@H]2C[C@H](O)[C@@H](CO)O2)cc1CO [hmdC, 5-hydroxymethyl-2′-deoxycytidine] |  |  |  | sensitivity of MUS81/DNPH1 k/o cells to nucleoside treatment (cell viability) ([1]; 6 days): to a lesser extent; LD80 dose [2]: 1000 nM; resistance of DCTD k/o cells to nucleoside treatment (DCTD k/o cell lines): completely resistant |
| O=c1[nH]c(=O)n([C@H]2C[C@H](O)C(COP(=O)(O)O)O2)cc1CO (some centres unmarked) [hmdUMP] |  | efficiently hydrolyzed |  | reaction rate of hmdUMP hydrolysis by DNPH1 (recombinant human DNPH1; DNPH1 (2 μM), samples quenched at intervals up to 20 minutes, linear regression): 14.6 ± 0.4 µM/min |
| O=C(c1cc(Cc2n[nH]c(=O)c3ccccc23)ccc1F)N1CCN(C(=O)C2CC2)CC1 [olaparib, 1-(Cyclopropylcarbonyl)-4-[5-[(3,4-dihydro-4-oxo-1-phthalazinyl)methyl]-2-fluorobenzoyl]piperazine] | limited effect on viability |  | sensitized | effect on viability, agent alone (DLD1 BRCA2−/− cells): limited effect on viability; LD80 dose [2]: 200 nM; effect on viability, agent alone [3]: limited effect on viability |
| Cn1ncnc1[C@H]1c2n[nH]c(=O)c3cc(F)cc(c23)N[C@@H]1c1ccc(F)cc1 [talazoparib, (8S,9R)-5-Fluoro-8-(4-fluorophenyl)-9-(1-methyl-1H-1,2,4-triazol-5-yl)-2,7,8,9-tetrahydro-3H-pyrido[4,3,2-de]phthalazin-3-one] | limited effect on viability |  | sensitised |  |
| C[C@]1(c2nc3c(C(N)=O)cccc3[nH]2)CCCN1 [veliparib, 2-[(2R)-2-Methyl-2-pyrrolidinyl]-1H-benzimidazole-4-carboxamide] | limited effect on viability |  | sensitised |  |
